Measured values taken from ChEMBL document CHEMBL4739718, “Substituted 5-cyclopropyl-1h-pyrazol-3-yl-amine derivatives as selective cdk12/13 inhibitors” (2020).

Columns and labels:
[1] = molecular target: T1, Cyclin-dependent kinase 7 (Homo sapiens, UniProt P50613); test: Binding affinity to CDK7 in human Jurkat cells assessed as target occupancy level incubated for 2 hrs by measuring Bio-THZ531 bound protein level by spectrophotometry based plate based target engagement assay; assay type: cell-based
[2] = molecular target: Cyclin-dependent kinase 12 (Homo sapiens) (UniProt Q9NYV4); test: Binding affinity to CDK12 in human Jurkat cells assessed as target occupancy level incubated for 2 hrs by measuring Bio-THZ531 bound protein level by spectrophotometry based plate based target engagement assay; assay type: cell-based
[3] = molecular target: T1, Cyclin-dependent kinase 7; test: Inhibition of CDK7 (unknown origin) assessed as reduction in ATP-dependent phosphorylation of ULight-myelin basic protein substrate peptide incubated for 60 mins by LANCE TR-FRET assay

T1 sequence (P50613 whole entry): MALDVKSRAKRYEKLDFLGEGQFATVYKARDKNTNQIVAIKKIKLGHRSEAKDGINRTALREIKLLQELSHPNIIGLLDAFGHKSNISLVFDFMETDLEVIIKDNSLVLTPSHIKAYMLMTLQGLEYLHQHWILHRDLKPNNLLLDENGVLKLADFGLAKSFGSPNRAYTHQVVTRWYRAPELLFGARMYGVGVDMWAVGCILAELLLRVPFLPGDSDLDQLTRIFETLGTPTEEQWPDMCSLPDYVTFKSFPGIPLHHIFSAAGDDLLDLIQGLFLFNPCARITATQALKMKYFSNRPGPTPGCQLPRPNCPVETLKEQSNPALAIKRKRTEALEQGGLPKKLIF
Chain of Cyclin-dependent kinase 12 (Homo sapiens) (Q9NYV4 whole entry, looked up): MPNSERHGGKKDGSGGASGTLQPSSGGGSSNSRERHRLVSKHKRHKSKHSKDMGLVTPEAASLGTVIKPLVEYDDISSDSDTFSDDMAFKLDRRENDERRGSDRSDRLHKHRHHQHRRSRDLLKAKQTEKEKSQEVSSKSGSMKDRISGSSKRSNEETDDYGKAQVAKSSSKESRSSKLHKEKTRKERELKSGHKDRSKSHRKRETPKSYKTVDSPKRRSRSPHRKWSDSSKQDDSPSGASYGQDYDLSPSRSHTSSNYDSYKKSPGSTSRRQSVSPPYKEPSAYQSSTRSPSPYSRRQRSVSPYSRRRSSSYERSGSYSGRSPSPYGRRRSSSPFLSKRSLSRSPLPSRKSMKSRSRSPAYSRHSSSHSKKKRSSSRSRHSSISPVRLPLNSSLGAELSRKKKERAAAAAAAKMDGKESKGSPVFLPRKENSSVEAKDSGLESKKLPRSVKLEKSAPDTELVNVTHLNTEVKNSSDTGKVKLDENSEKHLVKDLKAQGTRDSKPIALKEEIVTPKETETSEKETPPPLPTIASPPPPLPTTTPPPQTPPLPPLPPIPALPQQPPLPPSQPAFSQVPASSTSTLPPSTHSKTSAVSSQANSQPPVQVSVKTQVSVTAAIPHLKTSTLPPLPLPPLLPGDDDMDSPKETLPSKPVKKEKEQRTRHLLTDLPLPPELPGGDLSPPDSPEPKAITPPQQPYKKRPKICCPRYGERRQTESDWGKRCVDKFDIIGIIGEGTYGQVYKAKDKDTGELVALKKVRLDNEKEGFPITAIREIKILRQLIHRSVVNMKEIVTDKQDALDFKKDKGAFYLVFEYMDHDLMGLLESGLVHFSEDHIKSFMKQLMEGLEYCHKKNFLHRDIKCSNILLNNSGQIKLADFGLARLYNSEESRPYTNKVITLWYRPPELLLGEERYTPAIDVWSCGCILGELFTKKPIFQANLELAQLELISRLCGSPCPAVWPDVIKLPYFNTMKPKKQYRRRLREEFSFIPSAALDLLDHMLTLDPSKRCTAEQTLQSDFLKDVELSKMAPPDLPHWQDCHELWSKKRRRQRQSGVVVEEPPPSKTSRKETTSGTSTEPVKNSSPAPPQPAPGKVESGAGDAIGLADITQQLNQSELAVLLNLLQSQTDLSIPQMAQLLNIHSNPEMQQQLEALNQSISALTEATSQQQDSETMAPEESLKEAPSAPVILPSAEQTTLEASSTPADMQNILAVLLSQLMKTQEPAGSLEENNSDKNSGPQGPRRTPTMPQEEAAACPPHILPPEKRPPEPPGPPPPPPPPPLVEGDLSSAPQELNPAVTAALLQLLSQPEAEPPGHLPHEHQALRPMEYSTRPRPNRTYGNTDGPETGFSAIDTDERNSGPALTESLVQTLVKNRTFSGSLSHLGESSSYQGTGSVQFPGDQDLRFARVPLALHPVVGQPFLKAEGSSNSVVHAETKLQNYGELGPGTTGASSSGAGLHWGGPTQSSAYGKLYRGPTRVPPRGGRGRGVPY

| Compound | Occ50 [1] [µM] | Occ50 [2] [µM] | IC50 [3] [µM] |
| --- | --- | --- | --- |
| C=CC(=O)NCc1ccc(-c2ccc([C@H](C)C(=O)Nc3cc(C4CC4)[nH]n3)cc2)cn1 | > 2 | 0.022 | – |
| C=CC(=O)NCc1ccc(-c2ccc(C(C)C(=O)Nc3cc(C4CC4)[nH]n3)cc2)cn1 (stereo unspecified) | 0.61 | 0.23 | – |
| C=CC(=O)NCc1ccc(-c2ccc(C(C)C(=O)Nc3cc(C4CC4)[nH]n3)cn2)cn1 (stereo unspecified) | – | – | > 10 |
| CC(C(=O)Nc1cc(C2CC2)[nH]n1)c1ccc(-c2ccc(NC(=O)/C=C/CN3CCOCC3)cc2)cc1 (stereo in doubt; 12) | – | – | > 10 |
